Source: US10471161B2, “Vinylsulfone-based 18F-labeling compositions and methods and uses thereof” (priority 2014, dated 2019)
Where a SMILES comes first, the peptide text is derived from it. [ ]: non-standard residue; d: D form. The star is where a group is joined. ξ: configuration not given here. ξGly(4-Pip(1-amidino)) = N=C(N)N1CCC(C(N)C(=O)O)CC1; ξGly(piperidin-4-yl) = NC(C(=O)O)C1CCNCC1; Tle = CC(C)(C)[C@H](N)C(=O)O; X1 = O=S(=O)(CCOCCOCCF)CC*

Legend:
[1] = in vitro stability, incubation in PBS, radio-HPLC; assay type: physicochemical; conditions: 4 hr post HPLC purification
Experimental: ^18F-DEG-VS (100 μL, 1 mCi) and 30 μL of borate buffer (pH 8.5) were added into Neurotensin (100 μg, […]) or (Ac)-NT and the reaction mixture was incubated at room temperature for 5-10 min. The reaction was quenched by acetic acid (5%, 600 μL) and product was purified by radio HPLC using Method 1. The retention time of ^18F-DEG-VS-NT was 25.6 min and (^18F-DEG-VS)2-NT was not observed. […] An aliquot of the solution was then analyzed by radio-HPLC to determine the radiochemical purify. The retention time of ^18F-DEG-VS-(Ac)-NT was 28.4 min.

[2] = target: T1, NTR1 (Homo sapiens, UniProt P30989); experiment: competitive cell-binding assay with 125I-NT(8-13) in HT-29 cells; conditions: 1 hr at 37° C, n=3, read-out: IC50, inhibition of binding of 125I-NT(8-13) to NTR1 positive HT-29 cells
T1 construct: host or cells: HT-29 human colon adenocarcinoma cells (intact, adherent)
T1 sequence (P30989 whole entry): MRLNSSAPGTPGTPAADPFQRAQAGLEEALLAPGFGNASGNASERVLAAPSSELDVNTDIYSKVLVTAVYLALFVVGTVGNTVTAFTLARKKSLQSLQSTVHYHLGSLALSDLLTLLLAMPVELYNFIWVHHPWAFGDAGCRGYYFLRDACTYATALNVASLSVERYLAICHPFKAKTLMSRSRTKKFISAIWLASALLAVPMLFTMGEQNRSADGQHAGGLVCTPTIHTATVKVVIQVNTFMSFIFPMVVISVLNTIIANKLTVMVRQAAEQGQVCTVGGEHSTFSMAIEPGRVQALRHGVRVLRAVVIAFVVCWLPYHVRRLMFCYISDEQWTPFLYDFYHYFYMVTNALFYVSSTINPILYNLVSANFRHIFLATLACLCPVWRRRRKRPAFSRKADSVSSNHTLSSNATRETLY
Experimental: The human colon adenocarcinoma cell HT29 was obtained from American Type Culture Collection and maintained at 37° C. in a humidified atmosphere containing 5% CO2 in RPMI-1640, supplemented with 1% L-glutamine, 1% penicillin/streptomycin and 10% fetal bovine serum (Life Technologies, Inc.).
In detail, HT-29 cells were placed in 48-wells plates (1 million/0.4 mL/well) and were incubated for overnight. The cells were washed three times with binding buffer (50 mM Hepes, 125 mM NaCl, 7.5 mM KCl, 5.5 mM MgCl2, 1 mM EGTA, 5 g/L BSA, 2 mg/L chymostatin, 100 mg/L soybean trypsin inhibitor, 50 mg/L bacitracin, pH 7.4). […] After washing, cells were solubilized with 1 mol/L NaOH at 37° C. and the radioactivity was determined using a gamma counter. The best-fit 50% inhibitory concentration (IC50) values for HT-29 cells were calculated by fitting the data with nonlinear regression using GraphPad Prism (GraphPad Software). Experiments were performed on triplicate samples.

| SMILES | radiochemical purity after incubation in PBS [1] | IC50 [2] [nM] |
| --- | --- | --- |
| C=CS(=O)(=O)CCOCCOCC[18F] [^18F-DEG-VS] | more than 99% |  |
| CC(C)C[C@H](NC(=O)[C@@H](NC(=O)[C@H](Cc1ccc(O)cc1)NC(=O)[C@@H]1CCCN1C(=O)[C@H](CCCNC(=N)N)NC(=O)C(NC(=O)[C@@H]1CCCN1C(=O)C(NC(=O)[C@@H](N)CSCCS(=O)(=O)CCOCCOCCF)C1CCNCC1)C1CCN(C(=N)N)CC1)C(C)(C)C)C(=O)O (stereo partly drawn) [^19F-DEG-VS-NT] (H-C(X1)[ξGly(piperidin-4-yl)]P[ξGly(4-Pip(1-amidino))]RPY[Tle]L-OH) |  | 2.03 ± 0.22 |
